This passage reports IC50 results from patent publication US8822468B2 (Novartis AG, priority 2008, dated 2014).

Each structure is given as a SMILES string. Where only a bound is given, the exact number is not on record here.

The term IC50 denotes the concentration needed to halve the response being measured.

This assay deals with T1, cMET receptor tyrosine kinase (GST-cMET (969-1390)) (Homo sapiens, UniProt P08581).
T1 construct: made in house
T1 sequence (P08581 969-1390): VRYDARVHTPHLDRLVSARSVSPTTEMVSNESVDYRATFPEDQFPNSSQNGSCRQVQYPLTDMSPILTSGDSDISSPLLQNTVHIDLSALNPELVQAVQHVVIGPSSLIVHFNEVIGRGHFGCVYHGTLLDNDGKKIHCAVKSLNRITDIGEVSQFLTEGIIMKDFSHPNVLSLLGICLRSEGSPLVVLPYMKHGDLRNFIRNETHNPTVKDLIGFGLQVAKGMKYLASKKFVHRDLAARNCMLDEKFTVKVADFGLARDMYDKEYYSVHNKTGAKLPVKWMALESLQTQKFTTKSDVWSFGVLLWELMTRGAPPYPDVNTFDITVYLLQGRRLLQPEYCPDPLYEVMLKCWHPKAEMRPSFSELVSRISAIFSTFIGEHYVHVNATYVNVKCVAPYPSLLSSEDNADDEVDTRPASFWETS
Description: EPK cMET profiling assay (LanthaScreen TR-FRET antibody based kinase phosphorylation assay). It counts as biochemical. The following applies: purified recombinant GST-cMET (969-1390), 2 μM ATP, 50 nM Fluorescein-PolyEAY, 60 minutes at room temperature; read-out: c-Met IC50. In a few lines: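 GST-cMET cytoplasmic domain (969-1390), 0.3 nM, phosphorylated 50 nM fluorescein-PolyEAY with 2 µM ATP, Mg2+/Mn2+, 0.6% DMSO, 60 min at room temperature. Stopped with EDTA; Tb-PY20 antibody TR-FRET single end-point read. Final compound concentrations 10 to 0.003 µM, 8 points.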
Background: Time-resolved FRET reads energy transfer from a long-lived donor to a nearby acceptor.
Consider `Cn1cc(-c2ccc3ncc(Cc4ccc5ncccc5c4F)n3n2)cn1` [Example 160, 5-Fluoro-6-[6-(1-methyl-1H-pyrazol-4-yl)-imidazo[1,2-b]pyridazin-3-ylmethyl]-quinoline], for which the IC50 is 12 nM. Next, `Cn1cc(-c2ccc3ncc(Cc4ccc5[nH]cnc5c4)n3n2)cn1` [Example 162, 3-(1H-Benzoimidazol-5-ylmethyl)-6-(1-methyl-1H-pyrazol-4-yl)-imidazo[1,2-b]pyridazine]: 34 nM. Next, `Cn1cc(-c2ccc3ncc(C4(c5ccc6ncccc6c5)CC4)n3n2)cn1` [Example 163, 6-{1-[6-(1-Methyl-1H-pyrazol-4-yl)-imidazo[1,2-b]pyridazin-3-yl]-cyclopropyl}-quinoline]: 110 nM; `C[C@@H](c1cc2cn[nH]c2cc1F)c1cnc2ccc(-c3cnn(C)c3)nn12` [Example 165, 3-[(S)-1-(6-Fluoro-1H-indazol-5-yl)-ethyl]-6-(1-methyl-1H-pyrazol-4-yl)-imidazo[1,2-b]pyridazine]: 12 nM; `Cn1cc(-c2ccc3ncc(Cc4cc5cn[nH]c5cc4F)n3n2)cn1` [Example 167, 3-(6-Fluoro-1H-indazol-5-ylmethyl)-6-(1-methyl-1H-pyrazol-4-yl)-imidazo[1,2-b]pyridazine]: 6 nM. For the compound `Cn1cc(-c2ccc3ncc(Cc4cc5cccnc5cc4C(F)(F)F)n3n2)cn1` [Example 169, 6-[6-(1-Methyl-1H-pyrazol-4-yl)-imidazo[1,2-b]pyridazin-3-ylmethyl]-7-trifluoromethyl-quinoline], the IC50 turned out to be 400 nM. Next, `Cn1cc(-c2ccc3ncc(Cc4c(F)cc5ncccc5c4F)n3n2)cn1` [Example 170, 5,7-Difluoro-6-[6-(1-methyl-1H-pyrazol-4-yl)-imidazo[1,2-b]pyridazin-3-ylmethyl]-quinoline]: 6 nM; `OCCn1cc(-c2ccc3ncc(Cc4c(F)cc5ncccc5c4F)n3n2)cn1` [Example 171, 2-{4-[3-(5,7-Difluoro-quinolin-6-ylmethyl)-imidazo[1,2-b]pyridazin-6-yl]-pyrazol-1-yl}-ethanol]: less than 3 nM; `Cn1cc(-c2ccc3ncc(Cc4ccc5ncccc5c4Cl)n3n2)cn1` [Example 172, 5-Chloro-6-[6-(1-methyl-1H-pyrazol-4-yl)-imidazo[1,2-b]pyridazin-3-ylmethyl]-quinoline]: 10 nM. Under `Cn1cc(-c2ccc3ncc(Cc4cc5cccnc5cc4F)n3n2)cn1` [Example 173, 7-Fluoro-6-[6-(1-methyl-1H-pyrazol-4-yl)-imidazo[1,2-b]pyridazin-3-ylmethyl]-quinoline] stands 4 nM; under `Cn1cc(-c2ccc3ncc([C@](C)(O)c4cc5cccnc5cc4F)n3n2)cn1` [Example 175, (R)-1-(7-Fluoro-quinolin-6-yl)-1-[6-(1-methyl-1H-pyrazol-4-yl)-imidazo[1,2-b]pyridazin-3-yl]-ethanol], 38 nM; under `C[C@@H](c1ccc2ncccc2c1)c1cnc2ccc(-c3cnn(CCO)c3)nn12` [Example 179, 2-{4-[3-((S)-1-Quinolin-6-yl-ethyl)-imidazo[1,2-b]pyridazin-6-yl]-pyrazol-1-yl}-ethanol], 15 nM.

`Fc1cc2ncccc2cc1Cc1cnc2ccc(-c3cnn(C4CCNCC4)c3)nn12` [Example 180, 7-Fluoro-6-[6-(1-piperidin-4-yl-1H-pyrazol-4-yl)-imidazo[1,2-b]pyridazin-3-ylmethyl]-quinoline]: the concentration for half-maximal inhibition (IC50) came to 145 nM. Under `CN1CCC(n2cc(-c3ccc4ncc(Cc5cc6cccnc6cc5F)n4n3)cn2)CC1` [Example 181, 7-Fluoro-6-{6-[1-(1-methyl-piperidin-4-yl)-1H-pyrazol-4-yl]-imidazo[1,2-b]pyridazin-3-ylmethyl}-quinoline] stands 65 nM; under `C[C@H](c1c(F)cc2ncccc2c1F)c1cnc2ccc(-c3cnn(CCO)c3)nn12` [Example 183, 2-(4-{3-[(R)-1-(5,7-Difluoro-quinolin-6-yl)-ethyl]-imidazo[1,2-b]pyridazin-6-yl}-pyrazol-1-yl)ethanol], 200 nM. Under `C[C@@H](c1c(F)cc2ncccc2c1F)c1cnc2ccc(-c3cnn(CCO)c3)nn12` [Example 184, 2-(4-{3-[(S)-1-(5,7-Difluoro-quinolin-6-yl)-ethyl]-imidazo[1,2-b]pyridazin-6-yl}-pyrazol-1-yl)ethanol] stands less than 3 nM; under `C[C@@H](c1ccc2ncn(C)c2c1)c1cnc2ccc(-c3cnn(CCO)c3)nn12` [Example 187, 2-(4-{3-[(S)-1-(3-Methyl-3H-benzoimidazol-5-yl)-ethyl]-imidazo[1,2-b]pyridazin-6-yl}-pyrazol-1-yl)-ethanol], 19 nM; under `C[C@@H](c1c(F)cc2ncccc2c1F)c1cnc2ccc(-c3cnn(C)c3)nn12` [Example 192, 5,7-Difluoro-6-{(S)-1-[6-(1-methyl-1H-pyrazol-4-yl)-imidazo[1,2-b]pyridazin-3-yl]-ethyl}-quinoline], less than 3 nM. Regarding `C[C@H](c1c(F)cc2ncccc2c1F)c1cnc2ccc(-c3cnn(C)c3)nn12` [Example 193, 5,7-Difluoro-6-{(R)-1-[6-(1-methyl-1H-pyrazol-4-yl)-imidazo[1,2-b]pyridazin-3-yl]-ethyl}-quinoline], the IC50 was 250 nM. With `C[C@@H](c1cc2cnn(C)c2cc1F)c1cnc2ccc(-c3cnn(C)c3)nn12` [Example 194, 3-[(S)-1-(6-Fluoro-1-methyl-1H-indazol-5-yl)-ethyl]-6-(1-methyl-1H-pyrazol-4-yl)-imidazo[1,2-b]pyridazine], the IC50 is 18 nM.

As for `C[C@@H](c1ccc2[nH]ncc2c1)c1cnc2ccc(-c3cnn(C)c3)nn12` [Example 195, 3-[(S)-1-(2H-Indazol-5-yl)-ethyl]-6-(1-methyl-1H-pyrazol-4-yl)-imidazo[1,2-b]pyridazine], the IC50 was 14 nM.

On to `C[C@@H](c1ccc2c(cnn2C)c1)c1cnc2ccc(-c3cnn(C)c3)nn12` [Example 196, 3-[(S)-1-(1-Methyl-1H-indazol-5-yl)-ethyl]-6-(1-methyl-1H-pyrazol-4-yl)-imidazo[1,2-b]pyridazine], for which the IC50 turned out to be 36 nM. `FC(F)(c1ccc2ncccc2c1)c1cnc2ccc(-c3cnn(C4CCNCC4)c3)nn12` [Example 197, 6-{Difluoro-[6-(1-piperidin-4-yl-1H-pyrazol-4-yl)-imidazo[1,2-b]pyridazin-3-yl]-methyl}-quinoline]: the IC50 stood at 61 nM. Next, `Cn1cc(-c2ccc3ncc(Cc4c[nH]c5ncccc45)n3n2)cn1` [Example 199, 6-(1-Methyl-1H-pyrazol-4-yl)-3-(1H-pyrrolo[2,3-b]pyridin-3-ylmethyl)-imidazo[1,2-b]pyridazine]: 35.5 nM; `Cn1cc(-c2ccc3ncc(Cc4ccc5ncn(C)c5c4)n3n2)cn1` [Example 200, 3-(3-Methyl-3H-benzoimidazol-5-ylmethyl)-6-(1-methyl-1H-pyrazol-4-yl)-imidazo[1,2-b]pyridazine]: 23 nM; `Cn1cc(-c2ccc3ncc(Cc4ccc(O)cc4F)n3n2)cn1` [Example 202, 3-Fluoro-4-[6-(1-methyl-1H-pyrazol-4-yl)-imidazo[1,2-b]pyridazin-3-ylmethyl]-phenol]: 68 nM. Under `Cn1cc(-c2ccc3ncc(Cc4cn5ccnc5cc4F)n3n2)cn1` [Example 205, 3-(7-Fluoro-imidazo[1,2-a]pyridin-6-ylmethyl)-6-(1-methyl-1H-pyrazol-4-yl)-imidazo[1,2-b]pyridazine] stands 47 nM; under `N#Cc1ccc2ncc(Cc3ccc4ncccc4c3)n2n1` [Example 208, 3-Quinolin-6-ylmethyl-imidazo[1,2-b]pyridazine-6-carbonitrile], 52 nM; under `OCCn1cc(-c2ccc3ncc(Cc4ccc5ncccc5c4)n3n2)cn1` [Example 210, 2-[4-(3-Quinolin-6-ylmethyl-imidazo[1,2-b]pyridazin-6-yl)-pyrazol-1-yl]-ethanol], 52 nM. Regarding `CCn1cc(-c2ccc3ncc(Cc4ccc5ncccc5c4)n3n2)cn1` [Example 211, 6-[6-(1-Ethyl-1H-pyrazol-4-yl)-imidazo[1,2-b]pyridazin-3-ylmethyl]-quinoline], the IC50 was determined as 86 nM.

For the compound `c1cnc2ccc(Cc3cnc4ccc(-c5cn[nH]c5)nn34)cc2c1` [Example 212, 6-[6-(1H-Pyrazol-4-yl)-imidazo[1,2-b]pyridazin-3-ylmethyl]-quinoline], the IC50 was determined as 54 nM. Next, `OCCn1cc(-c2ccc3ncc(Cc4ccc5nccn5c4)n3n2)cn1` [Example 215, 2-[4-(3-Imidazo[1,2-a]pyridin-6-ylmethyl-imidazo[1,2-b]pyridazin-6-yl)-pyrazol-1-yl]-ethanol]: 130 nM; `Cn1cnc2ccc(Cc3cnc4ccc(-c5cnn(CCO)c5)nn34)cc21` [Example 217, 2-{4-[3-(3-Methyl-3H-benzoimidazol-5-ylmethyl)-imidazo[1,2-b]pyridazin-6-yl]-pyrazol-1-yl}-ethanol]: 84 nM; `OCCn1cc(-c2ccc3ncc(Cc4ccc(O)cc4F)n3n2)cn1` [Example 219, 3-Fluoro-4-{6-[1-(2-hydroxy-ethyl)-1H-pyrazol-4-yl]-imidazo[1,2-b]pyridazin-3-ylmethyl}-phenol]: 120 nM.

For the compound `OCCn1cc(-c2ccc3ncc(Cc4ccc(O)cc4)n3n2)cn1` [Example 220, 4-{6-[1-(2-Hydroxy-ethyl)-1H-pyrazol-4-yl]-imidazo[1,2-b]pyridazin-3-ylmethyl}-phenol], the IC50 worked out at 330 nM. On to `CC(c1ccc2ncccc2c1Cl)c1cnc2ccc(-c3cnn(C4CCN(C)CC4)c3)nn12` (stereo not drawn) [Example 224, 5-Chloro-6-(1-{6-[1-(1-methyl-piperidin-4-yl)-1H-pyrazol-4-yl]-imidazo[1,2-b]pyridazin-3-yl}-ethyl)-quinoline], for which the IC50 is 28 nM.
